{"source": "patent US4724259A", "about": "“Azo dyes and liquid-crystalline materials containing these dyes” (BASF Aktiengesellschaft, priority 1983, dated 1988)", "assay_type_in_all_cases": "physicochemical", "key": {"[1]": {"assay": "Solubility L in liquid crystal mixture (saturated solution, comparison of extinction)", "settings": "room temperature, percentages by weight unless stated otherwise"}, "[2]": {"assay": "Degree of order S in nematic broad-range mixture (dichroic ratio, homogeneous edge orientation, ground PVA cells)", "settings": "room temperature", "procedure": "The degree of order S was determined using the conventional equation [formula] the measurement being carried out in commercial measuring cells with a homogeneous edge orientation (ground PVA). The dichroic ratio CR was determined by measuring the extinctions E\" (measurement with light polarized parallel to the preferred direction of the nematic phase) and E^.perp. (measurement with light polarized perpendicular to the preferred direction of the nematic phase) and using the relationship CR=E\"/E^.perp. the dye concentration being chosen so that E\" was from 1 to 2. The measurements were carried out in a Beckmann Acta CIII spectrophotometer."}, "[3]": {"assay": "Light stability: high-speed exposure of the measuring cell in a Suntest from Hanau", "settings": "25° C., at the stated λmax", "procedure": "The light stability was determined by high-speed exposure of the measuring cell in a Suntest from Hanau, at 25° C. In this procedure, the decrease in E\" was measured. […] E\" was determined at the stated λmax values."}, "[4]": {"settings": "ZLI 1840 (Merck), 1 week stirring"}}}
{"smiles": "Cc1cc(OCc2ccc(C(C)(C)C)cc2)ccc1N=Nc1ccc(N=Nc2ccc(N=Nc3ccc(OCc4ccc(C(C)(C)C)cc4)cc3C)cc2)cc1", "note": "[Example 4]", "values": [{"measurement": "Solubility L", "setting": "[1]; [4]", "value": 0.3, "unit": "%"}, {"measurement": "Degree of order S", "setting": "[2]; ZLI 1840 (Merck)", "value": 0.75}]}
{"smiles": "CCCCCC1CCC(c2ccc(COc3ccc(N=Nc4ccc(N=Nc5ccc(N=Nc6ccc(O)cc6C)cc5)cc4)c(C)c3)cc2)CC1", "note": "(centres unmarked) [Example 5]", "values": [{"measurement": "E80% \" (exposure time after which E\"o has decreased to 80%)", "setting": "[3]", "value": 70, "unit": "h"}, {"measurement": "Eo \" (initial extinction)", "setting": "[3]", "value": 1.23}, {"measurement": "Solubility L", "setting": "[1]; [4]", "value": 1.9, "unit": "%"}, {"measurement": "Degree of order S", "setting": "[2]; ZLI 1840 (Merck)", "value": 0.79}]}
{"smiles": "CCCCC1CCC(c2ccc(COc3ccc(N=Nc4ccc(N=Nc5ccc(N=Nc6ccc(OCc7ccc(C8CCC(CCCC)CC8)cc7)cc6C)cc5)cc4)c(C)c3)cc2)CC1", "note": "(centres unmarked) [Example 8]", "values": [{"measurement": "Solubility L", "setting": "[1]; [4]", "value": 0.3, "unit": "%"}, {"measurement": "Degree of order S", "setting": "[2]; ZLI 1840 (Merck)", "value": 0.79}]}
{"smiles": "Cc1cc(C)c(COc2ccc(N=Nc3ccc(N=Nc4ccc(N=Nc5ccc(OCc6c(C)cc(C)cc6C)cc5C)cc4)cc3)c(C)c2)c(C)c1", "note": "[Example 3]", "values": [{"measurement": "E80% \" (exposure time after which E\"o has decreased to 80%)", "setting": "[3]", "value": 110, "unit": "h"}, {"measurement": "Eo \" (initial extinction)", "setting": "[3]", "value": 1.95}, {"measurement": "Solubility L", "setting": "[1]; [4]", "value": 1.0, "unit": "%"}, {"measurement": "Degree of order S", "setting": "[2]; ZLI 1840 (Merck)", "value": 0.77}]}
{"smiles": "CCCCCc1ccc(COc2cc(C)c(N=Nc3ccc(N=Nc4ccc(N=Nc5c(C)cc(OCc6ccc(CCCCC)cc6)cc5C)cc4)cc3)c(C)c2)cc1", "note": "[Example 16]", "values": [{"measurement": "Solubility L", "setting": "[1]; ZLI 1957/5 (Merck)", "value": 3, "unit": "%"}, {"measurement": "Degree of order S", "setting": "[2]; ZLI 1957/5 (Merck)", "value": 0.80}]}
{"smiles": "CCCCCc1ccc(COc2ccc(N=Nc3ccc(N=Nc4ccc(N=Nc5ccc(OCc6ccc(CCCCC)cc6)cc5C)cc4)cc3)c(C)c2)cc1", "note": "[Example 10]", "values": [{"measurement": "Solubility L", "setting": "[1]; ZLI 1957/5 (Merck)", "value": 1.2, "unit": "%"}, {"measurement": "Degree of order S", "setting": "[2]; ZLI 1957/5 (Merck)", "value": 0.81}]}
{"smiles": "Cc1cc(O)ccc1N=Nc1ccc(N=Nc2ccc(N=Nc3ccc(OCc4ccccc4)cc3C)cc2)cc1", "note": "[Example 1, 4-(2-methyl-4-hydroxyphenylazo)-4'-(2-methyl-4-benzyloxyphenylazo)-azobenzene]", "values": [{"measurement": "Solubility L", "setting": "[1]; [4]", "value": 0.9, "unit": "%"}, {"measurement": "Degree of order S", "setting": "[2]; ZLI 1840 (Merck)", "value": 0.75}]}
{"smiles": "CCCCCC1CCC(c2ccc(COc3ccc(N=Nc4ccc(N=Nc5ccc(N=Nc6ccc(OCc7ccc(C8CCC(CCCCC)CC8)cc7)cc6C)cc5)cc4)c(C)c3)cc2)CC1", "note": "(centres unmarked) [Example 9]", "values": [{"measurement": "E80% \" (exposure time after which E\"o has decreased to 80%)", "setting": "[3]", "value": 140, "unit": "h"}, {"measurement": "Eo \" (initial extinction)", "setting": "[3]", "value": 1.51}, {"measurement": "Solubility L", "setting": "[1]; [4]", "value": 0.8, "unit": "%"}, {"measurement": "Degree of order S", "setting": "[2]; ZLI 1840 (Merck)", "value": 0.81}]}
{"smiles": "Cc1cc(OCc2cc(C(C)(C)C)cc(C(C)(C)C)c2)ccc1N=Nc1ccc(N=Nc2ccc(N=Nc3ccc(OCc4cc(C(C)(C)C)cc(C(C)(C)C)c4)cc3C)cc2)cc1", "note": "[Example 11]", "values": [{"measurement": "Solubility L", "setting": "[1]; ZLI 1957/5 (Merck)", "value": 0.7, "unit": "%"}, {"measurement": "Degree of order S", "setting": "[2]; ZLI 1957/5 (Merck)", "value": 0.76}]}
{"smiles": "CCCCCC1CCC(c2ccc(COc3cc(C)c(N=Nc4ccc(N=Nc5ccc(N=Nc6c(C)cc(OCc7ccc(C8CCC(CCCCC)CC8)cc7)cc6C)cc5)cc4)c(C)c3)cc2)CC1", "note": "(centres unmarked) [Example 17]", "values": [{"measurement": "Solubility L", "setting": "[1]; ZLI 1957/5 (Merck)", "value": 0.2, "unit": "%"}, {"measurement": "Degree of order S", "setting": "[2]; ZLI 1957/5 (Merck)", "value": 0.81}]}
